{"source": "patent US11813264B2", "about": "“PAR1 modulation to alter myelination” (Mayo Foundation for Medical Education and Research, priority 2014, dated 2023)", "tested_on": "spinal cord white matter", "assay": "Microinjection of Klk6 or PAR1-AP into spinal cord dorsal column white matter", "assay_type": "in vivo, mouse", "protocol": "In vivo effects of excess Klk6 or PAR1-AP in spinal cord white matter: All mice were administered Buprenorphine preoperatively (Buprenex, 0.03 mg/kg, intraperitoneal (i.p.), Reckitt Benckise, Slough, UK) and every 12 hours for the first 48 hours following surgery. Surgical anesthesia was induced in age-matched male C57BL6/J or PAR12/2 mice using Ketamine (Ketaset, 80 mg/kg, Fort Dodge Animal Health, Fort Dodge, IA) and Xylazine i.p. (Anased, 10 mg/kg, Lloyd Laboratories, Shenendoah, IA). A thoracic (T11-T12) laminectomy was performed and a 30-40 μm glass capillary needle inserted into a 10 μL gas-tight Hamilton Syringe (Hamilton Company, Reno, NV) used to deliver 2 μL of Klk6 (0.01 μg/μL (300 nM)), PAR1-AP (0.01 μg/μL (100 μM)), or vehicle (physiologic saline) alone (n=3 for each treatment group) using a stereotaxic injection system (Stoelting, Wood Dale, IL). Under micromanipulator control (MyNeurolab, Richmond, IL), the needle was inserted 350 μm into the dorsal column, infusion carried out over 5 minutes and the needle left in place for 3 minutes to avoid backflow. All mice received 0.5 mL of sterile saline and Baytril (2.5 mg/kg, Bayer Healthcare, Shawnee Mission, KS) i.p. postoperatively.\nSeventy-two hours after microinjection of PAR1 agonists, mice were deeply anesthetized with Nembutal (50 mg/kg, i.p., Lundbeck, Deerfield, IL) and perfused transcardially with 4% PFA. Two millimeter transverse spinal cord segments encompassing the microinjection epicenter as well as 2 mm rostral and caudal were embedded in paraffin. Six micrometer sections were cut and slide mounted serially. Every sixth slide was stained with hematoxylin and eosin (H&E). Adjacent sections were immunostained for oligodendroglia using an antibody specific for CC-1/APC (ab16794, AbCam, Cambridge, MA), myelin using an antibody recognizing MBP (MAB386, Millipore, Bedford, MA), and standard avidin-biotin immunoperoxidase techniques (Scarisbrick et al., J Comp Neurol 431:347-361, 2001; and Scarisbrick et al. 2012b, supra). Stained sections were cover slipped with Permount (Fisher Scientific, Pittsburgh, PA) containing 2 mg/mL bisbenzamide to visualize nuclei (Sigma Aldrich).\nMeasurements of white matter lesion area were based on signs of pathology (vacuolation, tissue destruction, hemorrhage) in 20× digital images of H&E stained sections. The largest lesion area in each animal was used to determine mean maximal lesion area and expressed in μm^2. The integrity of MBP immunoreactivity was assessed in sections for 2,000 μm rostrocaudal to the microinjection site. The number of dorsal column CC-1^+/DAPI^+ cells was quantified in sections across […] of spinal cord extending rostrocaudal to the epicenter. The mean area of dorsal column white matter in the intact spinal cord was approximately […]. To put the number of CC-1^+ oligodendrocytes into context, the mean number CC-1V cells per mm^2 was evaluated as the mean number per […]. Sections stained for CC-1 were also stained for GFAP (Sigma Aldrich), allowing for the exclusion of CC-1^+ astrocytes; however, no examples of double labeled cells were observed.", "data": [{"substance": "Klk6: Recombinant murine kallikrein-related peptidase 6 expressed using a baculovirus system", "values": [{"measurement": "maximal lesion area relative to saline alone", "setting": "PAR1+/+ mice", "value": "enhanced"}, {"measurement": "reduction of CC-1+ cells in dorsal column white matter", "setting": "PAR1+/+ mice", "value": "~15", "unit": "%"}, {"measurement": "rostrocaudal white matter pathology versus saline alone", "setting": "PAR1+/+ mice", "value": "two-fold greater"}, {"measurement": "loss of MBP-immunoreactivity relative to saline alone", "setting": "PAR1+/+ mice, 72 hours", "value": "~45", "unit": "%"}, {"measurement": "white matter surrounding injection site with vacuolating myelinopathy, tissue destruction and hemorrhage", "setting": "PAR1+/+ mice, 0.02 μg total, 72 hours", "value": "over 1,200 μm"}, {"measurement": "rostrocaudal white matter pathology", "setting": "PAR1+/+ mice, 0.02 μg, 72 hours", "value": "1,242.0±95.3 μm"}, {"measurement": "white matter pathology", "setting": "PAR1-/- mice", "value": "largely absent"}]}]}
